Reference: PubChem BioAssay AID1963975 (Molecular Pharmacology Branch, DTP, NCI, 2024)

Test system: 624824-186-R-J2-PDC multicell spheroids, viability
Assay: Anticancer human tumor 624824-186-R-J2-PDC patient-derived colon adenocarcinoma cell line growth inhibition [PI3K]
Details: for IC50: curve of first compound; for viability, T/C: stronger effect = lower value; active means viability on the fitted dose curve at most 10% of control; inactive means the rest
In short: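 Combination activity was assessed by viability in multicellular tumor spheroids carrying HUVEC and MSC components. Agents were tested with PI3K inhibitors from a Cmax-based top dose (or 10 microM) downward in half-log increments.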

[1] = second compound 0.0316 µM, first compound 0.0316 µM
[2] = second compound 0.0316 µM, first compound 0.1 µM
[3] = second compound 0.0316 µM, first compound 0.316 µM
[4] = second compound 0.0316 µM, first compound 1 µM
[5] = second compound 0.0316 µM, first compound 3.16 µM
[6] = second compound 0.0316 µM, first compound 10 µM
[7] = second compound 0.1 µM, first compound 0.0316 µM
[8] = second compound 0.1 µM, first compound 0.1 µM
[9] = second compound 0.1 µM, first compound 0.316 µM
[10] = second compound 0.1 µM, first compound 1 µM
[11] = second compound 0.1 µM, first compound 3.16 µM
[12] = second compound 0.1 µM, first compound 10 µM
[13] = second compound 0.316 µM, first compound 0.0316 µM
[14] = second compound 0.316 µM, first compound 0.1 µM
[15] = second compound 0.316 µM, first compound 0.316 µM
[16] = second compound 0.316 µM, first compound 1 µM
[17] = second compound 0.316 µM, first compound 3.16 µM
[18] = second compound 0.316 µM, first compound 10 µM
[19] = second compound 1 µM, first compound 0.0316 µM
[20] = second compound 1 µM, first compound 0.1 µM
[21] = second compound 1 µM, first compound 0.316 µM
[22] = second compound 1 µM, first compound 1 µM
[23] = second compound 1 µM, first compound 3.16 µM
[24] = second compound 1 µM, first compound 10 µM
[25] = second compound 3.16 µM, first compound 0.0316 µM
[26] = second compound 3.16 µM, first compound 0.1 µM
[27] = second compound 3.16 µM, first compound 0.316 µM
[28] = second compound 3.16 µM, first compound 1 µM
[29] = second compound 3.16 µM, first compound 3.16 µM
[30] = second compound 3.16 µM, first compound 10 µM
[31] = second compound 10 µM, first compound 0.0316 µM
[32] = second compound 10 µM, first compound 0.1 µM
[33] = second compound 10 µM, first compound 0.316 µM
[34] = second compound 10 µM, first compound 1 µM
[35] = second compound 10 µM, first compound 3.16 µM
[36] = second compound 10 µM, first compound 10 µM
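Further: spheroids exposed to agents for 7 days before viability read.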
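Wherever viability, T/C is given: 100% = DMSO vehicle treated spheroids.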

C#Cc1c(F)ccc2cc(O)cc(-c3ncc4c(N5CC6CCC(C5)N6)nc(OCC56CCCN5CC(F)C6)nc4c3F)c12 (stereo not drawn) + CC(Nc1ncnc2nc[nH]c12)c1cc2cccc(Cl)c2c(=O)n1-c1ccccc1
inactive: viability, T/C [1] 81.5% | viability, T/C [2] 80% | viability, T/C [3] 106% | viability, T/C [4] 73.1% | viability, T/C [5] 93.2% | viability, T/C [6] 59.5% | viability, T/C [7] 83.8% | viability, T/C [8] 78.7% | viability, T/C [9] 76% | viability, T/C [10] 74.1% | viability, T/C [11] 77.9% | viability, T/C [12] 67.7% | viability, T/C [13] 78.9% | viability, T/C [14] 93.6% | viability, T/C [15] 93.8% | viability, T/C [16] 82.5% | viability, T/C [17] 64.5% | viability, T/C [18] 71.9% | viability, T/C [19] 73% | viability, T/C [20] 72.8% | viability, T/C [21] 81% | viability, T/C [22] 76.6% | viability, T/C [23] 86.3% | viability, T/C [24] 75.5% | viability, T/C [25] 78.8% | viability, T/C [26] 97.9% | viability, T/C [27] 74.7% | viability, T/C [28] 84.3% | viability, T/C [29] 94.6% | viability, T/C [30] 70.2% | viability, T/C [31] 87.4% | viability, T/C [32] 83.2% | viability, T/C [33] 91.4% | viability, T/C [34] 102% | viability, T/C [35] 98% | viability, T/C [36] 89.4%
> 10 µM: IC50 (second compound 0.0316 µM) | IC50 (second compound 0.1 µM) | IC50 (second compound 0.316 µM) | IC50 (second compound 1 µM) | IC50 (second compound 3.16 µM) | IC50 (second compound 10 µM)

C=CC(=O)N1CCN(c2nc(=O)n(-c3c(C)ccnc3C(C)C)c3nc(-c4c(O)cccc4F)c(F)cc23)C(C)C1 (stereo not drawn) + CC(Nc1ncnc2nc[nH]c12)c1cc2cccc(Cl)c2c(=O)n1-c1ccccc1
inactive: viability, T/C [1] 77.6% | viability, T/C [2] 82.8% | viability, T/C [3] 100% | viability, T/C [4] 85.2% | viability, T/C [5] 75.2% | viability, T/C [6] 77.9% | viability, T/C [7] 95.2% | viability, T/C [8] 77.9% | viability, T/C [9] 82% | viability, T/C [10] 93.6% | viability, T/C [11] 78.1% | viability, T/C [12] 90.2% | viability, T/C [13] 104% | viability, T/C [14] 94.2% | viability, T/C [15] 79.4% | viability, T/C [16] 88.7% | viability, T/C [17] 83.8% | viability, T/C [18] 72.8% | viability, T/C [19] 106% | viability, T/C [20] 80.7% | viability, T/C [21] 84.8% | viability, T/C [22] 84.4% | viability, T/C [23] 77.3% | viability, T/C [24] 70.6% | viability, T/C [25] 97.6% | viability, T/C [26] 96.6% | viability, T/C [27] 77.5% | viability, T/C [28] 90.4% | viability, T/C [29] 85.5% | viability, T/C [30] 81% | viability, T/C [31] 116% | viability, T/C [32] 98.7% | viability, T/C [33] 109% | viability, T/C [34] 99.2% | viability, T/C [35] 92.3% | viability, T/C [36] 83%
> 10 µM: IC50 (second compound 0.0316 µM) | IC50 (second compound 0.1 µM) | IC50 (second compound 0.316 µM) | IC50 (second compound 1 µM) | IC50 (second compound 3.16 µM) | IC50 (second compound 10 µM)

CC(Cn1ccc(-c2ccc(C#N)c(Cl)c2)n1)NC(=O)c1cc(C(C)O)[nH]n1 (stereo not drawn) + CC(Nc1ncnc2nc[nH]c12)c1cc2cccc(Cl)c2c(=O)n1-c1ccccc1
> 10 µM: IC50 (second compound 0.0316 µM) | IC50 (second compound 0.1 µM) | IC50 (second compound 0.316 µM) | IC50 (second compound 1 µM) | IC50 (second compound 3.16 µM) | IC50 (second compound 10 µM)
inactive: viability, T/C [1] 98.2% | viability, T/C [2] 90.6% | viability, T/C [3] 96.1% | viability, T/C [4] 106% | viability, T/C [5] 99.2% | viability, T/C [6] 113% | viability, T/C [7] 92.1% | viability, T/C [8] 93.6% | viability, T/C [9] 114% | viability, T/C [10] 108% | viability, T/C [11] 98.5% | viability, T/C [12] 115% | viability, T/C [13] 111% | viability, T/C [14] 102% | viability, T/C [15] 84.7% | viability, T/C [16] 97.5% | viability, T/C [17] 107% | viability, T/C [18] 100% | viability, T/C [19] 105% | viability, T/C [20] 106% | viability, T/C [21] 95.2% | viability, T/C [22] 94.5% | viability, T/C [23] 80.5% | viability, T/C [24] 92.4% | viability, T/C [25] 112% | viability, T/C [26] 102% | viability, T/C [27] 85.5% | viability, T/C [28] 102% | viability, T/C [29] 110% | viability, T/C [30] 115% | viability, T/C [31] 103% | viability, T/C [32] 106% | viability, T/C [33] 110% | viability, T/C [34] 115% | viability, T/C [35] 106% | viability, T/C [36] 107%

CC1(C)CCC(Nc2ncc(C(F)(F)F)c(-c3c[nH]c4c(P(C)(C)=O)c(C#N)ccc34)n2)CN1 (stereo not drawn) + CC(Nc1ncnc2nc[nH]c12)c1cc2cccc(Cl)c2c(=O)n1-c1ccccc1
4.27 µM: IC50 (second compound 0.1 µM)
3.55 µM: IC50 (second compound 0.0316 µM)
active: viability, T/C [6] 6.48% | viability, T/C [12] 6.11% | viability, T/C [18] 5.05% | viability, T/C [24] 4.82% | viability, T/C [30] 4.88% | viability, T/C [36] 3.89%
2.97 µM: IC50 (second compound 10 µM)
2.99 µM: IC50 (second compound 3.16 µM)
inactive: viability, T/C [1] 81.1% | viability, T/C [2] 93.2% | viability, T/C [3] 102% | viability, T/C [4] 108% | viability, T/C [5] 54.9% | viability, T/C [7] 94.1% | viability, T/C [8] 92.3% | viability, T/C [9] 96.3% | viability, T/C [10] 104% | viability, T/C [11] 65.7% | viability, T/C [13] 91% | viability, T/C [14] 76.4% | viability, T/C [15] 90.8% | viability, T/C [16] 108% | viability, T/C [17] 49.7% | viability, T/C [19] 108% | viability, T/C [20] 94.1% | viability, T/C [21] 100% | viability, T/C [22] 98.7% | viability, T/C [23] 57.6% | viability, T/C [25] 91.2% | viability, T/C [26] 94.7% | viability, T/C [27] 100% | viability, T/C [28] 93.3% | viability, T/C [29] 47.8% | viability, T/C [31] 100% | viability, T/C [32] 84.4% | viability, T/C [33] 92.3% | viability, T/C [34] 81.3% | viability, T/C [35] 48.1%
3.73 µM: IC50 (second compound 1 µM)
3.13 µM: IC50 (second compound 0.316 µM)
